Experimental data published in PMC5623949, “Exploiting the 2-Amino-1,3,4-thiadiazole Scaffold To Inhibit Trypanosoma brucei Pteridine Reductase in Support of Early-Stage Drug Discovery” (ACS Omega, 2017).
Like-named read-outs stand apart in the source and are kept apart here.

Key:
[1] = tested on: T. b. brucei Lister 427 bloodstream forms; assay: In vitro activity against T. brucei (HTS SYBR Green I growth inhibition assay); type: cell-based, Trypanosoma brucei brucei; settings: Trypanosoma brucei, 50 μM; standard deviation within ±10% of the value; read-out: % Inhibition T. brucei at 50 μM
[2] = molecular target: T1, TbPTR1 (Trypanosoma brucei brucei, UniProt O76290); assay: biochemical; settings: 50 μM compound; read-out: % Inhibition TbPTR1 at 50 μM
T1 construct: made in house
T1 sequence (O76290 1-268): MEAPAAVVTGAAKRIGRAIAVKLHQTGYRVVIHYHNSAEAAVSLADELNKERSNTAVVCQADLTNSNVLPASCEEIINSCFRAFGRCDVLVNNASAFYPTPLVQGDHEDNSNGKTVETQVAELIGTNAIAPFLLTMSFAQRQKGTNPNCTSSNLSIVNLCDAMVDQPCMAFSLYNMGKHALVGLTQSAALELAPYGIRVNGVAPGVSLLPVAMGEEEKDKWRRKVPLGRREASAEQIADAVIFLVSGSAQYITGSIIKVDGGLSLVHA

[3] = in vitro; parameters: cytotoxicity, per cent cell growth of WI-38 fibroblasts; settings: human, wi-38 cells; read-out: % cell growth W1-38 at 10uM
Procedure: (§1) Independent of the effect of any antiparasitic potential of compounds, they were evaluated using a panel of early-toxicity assays comprising cytotoxicity (A549, human lung adenocarcinoma epithelial cell line and WI-38, human lung fibroblasts), mitochondrial toxicity (786-O, human renal carcinoma cell line), hERG inhibition,[31] cytochrome P450 inhibition (CYP1A2, CYP2C9, CYP2C19, CYP2D6, and CYP3A4),[31] and Aurora B kinase inhibition. […] For the two compounds active against TbPTR1 (4m and 4o), IC50 against hERG, cytochrome P450, and mitochondrial toxicity were determined (reported in Supporting Information). We observed that the dose of compounds 4m, 4o, 4c, and 3k was 4 μM in the potentiation assays. […] In the case of hERG, CYP2D6, CYP2A9, CYP2C19, and mitochondrial toxicity, there is a selectivity index of around 3–4 fold, thus showing an acceptable profile.  Figure 10 Summary heat map of the in vitro assays to determine possible liability issues for all synthesized compounds. Assays were performed to assess inhibition of hERG and five CYP isoforms (1A2, 2C9, 2C19, 2D6, and 3A4), growth inhibition of A549 and W1-38 cell lines, and mitochondrial toxicity at 10 μM. The hDHFR inhibition was determined at 100 μM. The data, expressed as percentage values, were organized by adopting a color code for rapid and intuitive visualization. The ideal compound should have all tiles blue, indicating a safe toxicological profile for progressing into the development pipeline. The cells are colored from blue (100% of cell growth at the tested concentration) to red (0% of cell growth at the tested concentration) for A549 and W1-38 and from blue (0% of inhibitory activity at the tested concentration) to red (100% of inhibitory activity at the tested concentration) for CYP isoforms, hERG, hDHFR, and mitochondrial toxicity.

[4] = molecular target: CYP2C9 (Homo sapiens, UniProt P11712); assay: in vitro; parameters: cytochrome P450 isoform inhibition liability assay
Sequence of CYP2C9 (P11712 whole entry, canonical isoform): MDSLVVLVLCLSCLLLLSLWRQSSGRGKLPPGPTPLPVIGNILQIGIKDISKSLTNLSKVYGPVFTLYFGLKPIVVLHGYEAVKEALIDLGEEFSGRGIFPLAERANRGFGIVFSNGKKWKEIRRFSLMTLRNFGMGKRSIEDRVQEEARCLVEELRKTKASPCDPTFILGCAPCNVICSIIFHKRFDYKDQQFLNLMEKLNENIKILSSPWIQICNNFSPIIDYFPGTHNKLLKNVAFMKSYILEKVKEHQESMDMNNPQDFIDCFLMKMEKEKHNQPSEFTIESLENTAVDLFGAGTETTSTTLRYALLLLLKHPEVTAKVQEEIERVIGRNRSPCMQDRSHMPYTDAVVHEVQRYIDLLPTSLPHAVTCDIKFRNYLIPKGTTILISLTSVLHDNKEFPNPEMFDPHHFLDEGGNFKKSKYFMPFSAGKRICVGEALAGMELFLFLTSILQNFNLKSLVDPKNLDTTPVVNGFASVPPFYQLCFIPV
Procedure: as §1

[5] = molecular target: CYP2C19 (Homo sapiens, UniProt P33261); assay: in vitro; parameters: cytochrome P450 isoform inhibition liability assay
Sequence of CYP2C19 (P33261 whole entry, canonical isoform): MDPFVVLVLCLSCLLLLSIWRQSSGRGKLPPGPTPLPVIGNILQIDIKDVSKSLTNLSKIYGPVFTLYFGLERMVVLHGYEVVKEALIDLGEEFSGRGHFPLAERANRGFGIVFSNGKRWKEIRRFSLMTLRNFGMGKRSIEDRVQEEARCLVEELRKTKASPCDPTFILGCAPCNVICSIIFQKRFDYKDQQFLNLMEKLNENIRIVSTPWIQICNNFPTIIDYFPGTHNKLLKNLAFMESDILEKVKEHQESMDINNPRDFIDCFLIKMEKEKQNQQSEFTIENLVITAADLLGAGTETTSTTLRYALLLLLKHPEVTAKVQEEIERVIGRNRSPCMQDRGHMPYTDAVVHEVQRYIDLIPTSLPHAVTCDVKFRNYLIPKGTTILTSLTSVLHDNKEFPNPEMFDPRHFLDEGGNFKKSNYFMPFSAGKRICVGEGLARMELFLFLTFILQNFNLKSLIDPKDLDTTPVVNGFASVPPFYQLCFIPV
Procedure: as §1

[6] = molecular target: CYP3A4 (Homo sapiens, UniProt P08684); assay: in vitro; parameters: cytochrome P450 isoform inhibition liability assay
Sequence of CYP3A4 (P08684 whole entry, canonical isoform): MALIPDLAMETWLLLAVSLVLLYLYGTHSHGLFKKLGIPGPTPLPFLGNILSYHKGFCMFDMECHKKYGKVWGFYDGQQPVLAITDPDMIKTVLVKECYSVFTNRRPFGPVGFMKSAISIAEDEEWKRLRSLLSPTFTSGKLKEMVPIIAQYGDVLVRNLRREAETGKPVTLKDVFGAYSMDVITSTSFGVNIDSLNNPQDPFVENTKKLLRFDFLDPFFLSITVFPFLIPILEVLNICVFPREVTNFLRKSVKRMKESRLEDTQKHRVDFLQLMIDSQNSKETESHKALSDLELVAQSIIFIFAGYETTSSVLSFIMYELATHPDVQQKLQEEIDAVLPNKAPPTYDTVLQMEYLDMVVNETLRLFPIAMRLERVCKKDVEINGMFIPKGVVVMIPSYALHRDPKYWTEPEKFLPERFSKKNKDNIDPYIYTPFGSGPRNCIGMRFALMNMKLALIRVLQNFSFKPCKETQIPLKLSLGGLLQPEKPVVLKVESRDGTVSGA
Procedure: as §1

[7] = molecular target: T2, CYP1A2 (Homo sapiens, UniProt P05177); assay: in vitro; parameters: cytochrome P450 isoform inhibition liability assay
T2 sequence (P05177 1-516): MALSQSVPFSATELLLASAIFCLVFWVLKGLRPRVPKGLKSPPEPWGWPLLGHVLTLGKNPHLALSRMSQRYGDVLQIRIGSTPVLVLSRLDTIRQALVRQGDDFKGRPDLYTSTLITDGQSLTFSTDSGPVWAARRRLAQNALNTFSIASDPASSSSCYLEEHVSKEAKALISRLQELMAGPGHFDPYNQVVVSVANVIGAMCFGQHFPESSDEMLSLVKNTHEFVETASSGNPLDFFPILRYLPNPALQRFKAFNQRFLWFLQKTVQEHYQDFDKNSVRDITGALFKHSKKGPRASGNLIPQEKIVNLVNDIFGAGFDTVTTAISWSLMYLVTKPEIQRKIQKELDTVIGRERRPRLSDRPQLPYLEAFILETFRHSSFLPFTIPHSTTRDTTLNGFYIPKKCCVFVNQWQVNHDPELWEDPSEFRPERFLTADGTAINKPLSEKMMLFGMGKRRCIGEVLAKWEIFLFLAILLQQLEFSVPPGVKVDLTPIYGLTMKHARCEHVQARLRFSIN
Procedure: as §1

[8] = molecular target: CYP2D6 (Homo sapiens, UniProt P10635); assay: in vitro; parameters: cytochrome P450 isoform inhibition liability assay
Sequence of CYP2D6 (P10635 whole entry, canonical isoform): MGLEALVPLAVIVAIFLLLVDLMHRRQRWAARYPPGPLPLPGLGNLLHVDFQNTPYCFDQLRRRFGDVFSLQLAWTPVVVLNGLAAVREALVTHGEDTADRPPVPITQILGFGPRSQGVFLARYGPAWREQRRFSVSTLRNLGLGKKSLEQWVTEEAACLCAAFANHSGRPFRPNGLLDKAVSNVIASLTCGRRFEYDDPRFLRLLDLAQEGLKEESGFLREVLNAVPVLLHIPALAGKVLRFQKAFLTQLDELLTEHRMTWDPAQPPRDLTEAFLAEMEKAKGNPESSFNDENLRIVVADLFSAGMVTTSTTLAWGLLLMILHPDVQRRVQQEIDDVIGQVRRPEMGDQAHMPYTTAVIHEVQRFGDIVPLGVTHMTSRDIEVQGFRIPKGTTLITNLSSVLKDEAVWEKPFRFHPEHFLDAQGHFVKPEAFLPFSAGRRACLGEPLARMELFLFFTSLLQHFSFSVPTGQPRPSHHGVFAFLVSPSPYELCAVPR
Procedure: as §1

[9] = tested on: 786-O; assay: cells; parameters: mitochondrial toxicity in 786-O renal carcinoma cells; settings: Homo sapiens, 786-0; mitochondrial toxicity
Procedure: as §1

[10] = in vitro; parameters: cytotoxicity, per cent cell growth of A549 cells; settings: human, a549 cells; read-out: % cell growth A549 at 10uM
Procedure: as §1

[11] = molecular target: T3, hERG (Homo sapiens, UniProt Q12809); parameters: hERG inhibition liability assay
T3 construct: gene KCNH2
T3 sequence (Q12809 whole entry): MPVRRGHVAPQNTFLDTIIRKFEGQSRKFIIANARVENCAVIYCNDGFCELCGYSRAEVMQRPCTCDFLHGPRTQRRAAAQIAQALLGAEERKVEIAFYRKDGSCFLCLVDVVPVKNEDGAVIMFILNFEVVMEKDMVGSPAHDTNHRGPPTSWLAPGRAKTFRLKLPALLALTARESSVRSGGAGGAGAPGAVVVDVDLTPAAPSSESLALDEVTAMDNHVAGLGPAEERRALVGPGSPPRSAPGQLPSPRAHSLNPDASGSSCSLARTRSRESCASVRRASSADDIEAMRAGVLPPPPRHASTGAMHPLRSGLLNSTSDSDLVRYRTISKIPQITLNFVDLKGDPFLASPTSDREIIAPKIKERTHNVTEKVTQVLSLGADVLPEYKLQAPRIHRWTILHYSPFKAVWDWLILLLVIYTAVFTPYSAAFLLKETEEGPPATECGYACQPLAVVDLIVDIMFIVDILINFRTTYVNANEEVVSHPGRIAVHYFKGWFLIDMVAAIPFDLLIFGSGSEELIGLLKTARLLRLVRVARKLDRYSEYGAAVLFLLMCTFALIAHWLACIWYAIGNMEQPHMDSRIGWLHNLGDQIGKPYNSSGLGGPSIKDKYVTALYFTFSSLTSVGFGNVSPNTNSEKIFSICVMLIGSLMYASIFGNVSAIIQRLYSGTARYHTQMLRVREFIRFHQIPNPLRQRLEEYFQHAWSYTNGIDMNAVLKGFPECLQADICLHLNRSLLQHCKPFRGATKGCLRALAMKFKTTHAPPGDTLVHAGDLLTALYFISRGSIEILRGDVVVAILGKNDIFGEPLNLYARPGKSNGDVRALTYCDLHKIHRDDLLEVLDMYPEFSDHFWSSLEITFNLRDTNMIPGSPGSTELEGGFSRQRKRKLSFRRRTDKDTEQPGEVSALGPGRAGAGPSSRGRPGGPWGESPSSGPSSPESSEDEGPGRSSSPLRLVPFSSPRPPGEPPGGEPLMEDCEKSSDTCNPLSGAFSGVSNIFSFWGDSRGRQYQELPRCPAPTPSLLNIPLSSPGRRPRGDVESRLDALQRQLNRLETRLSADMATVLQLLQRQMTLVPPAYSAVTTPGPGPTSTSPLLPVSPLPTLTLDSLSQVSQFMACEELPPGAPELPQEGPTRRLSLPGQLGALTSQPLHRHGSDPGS
Procedure: as §1

SMILES | inhibition at 50 µM [1] [%] | inhibition at 50 µM [2] [%] | viability at 10 µM [3] [%] | inhibition at 10 µM [4] [%] | inhibition at 10 µM [5] [%] | inhibition at 10 µM [6] [%] | inhibition at 10 µM [7] [%] | inhibition at 10 µM [8] [%] | inhibition at 10 µM [9] [%] | viability at 10 µM [10] [%] | inhibition at 10 µM [11] [%]
Nc1nnc(NCc2ccccc2Cl)s1 [4d] | < 0 | 21.8 ± 2.2 | 55.4 ± 2.4 | 13.9 ± 3.5 | -13.3 ± 10.3 | 10.1 ± 10.7 | 28.2 ± 1.2 | 90.3 ± 0.9 | -1.6 ± 9.3 | 115 ± 8.9 | 15.2 ± 3.6
Nc1nnc(-c2ccc(-c3ccccc3)cc2)s1 [2a] | 43.1 | 10.8 ± 0.4 | 90.7 ± 4.9 | 76.7 ± 0.5 | 95.8 ± 0.7 | 50.6 ± 3.7 | 98.9 ± 0.4 | 45.4 ± 3.1 | 11.1 ± 4.1 | 142 ± 7.3 | 
Nc1nnc(Cc2cccc([N+](=O)[O-])c2)s1 [3c] | 0.8 | 15.8 ± 0.5 | 88.4 ± 11.1 | -8.8 ± 3 | -36.1 ± 11.8 | -16.9 ± 5.2 | -10.9 ± 1.6 | -38.6 ± 16.3 | -4.11 ± 5.77 | 117 ± 3.5 | -1.8 ± 0.6
Nc1nnc(CCc2ccccc2)s1 [3g] | < 0 | 7.6 ± 0.3 | 101 ± 17.5 | -10.5 ± 3.7 | -36.5 ± 6.1 | -25.6 ± 10.5 | -14.9 ± 5.7 | -43.9 ± 4.1 | 4 ± 16.1 | 109 ± 13.4 | -1.9 ± 1.3
CN(C)C(=O)NCc1cccc(-c2nnc(N)s2)c1 [1q] | 1.2 | 2.5 ± 0.2 |  | 19.7 ± 3.6 | 19.6 ± 8.2 | 4.5 ± 11.4 | 7 ± 1.9 | 20.4 ± 3.5 |  |  | 
COc1ccc(CNc2nnc(N)s2)cc1OC [4j] | 45.1 | 8.4 ± 1.2 | 129 ± 57.4 | 26.2 ± 1.3 | 5.7 ± 7.4 | 18.6 ± 4.2 | 23.9 ± 4.8 | 36.5 ± 4.4 | -8.3 ± 4.5 | 118 ± 3.9 | 35.7 ± 7.1
Nc1nnc(Cc2cccs2)s1 [3d] | 7.5 | 18.5 ± 0.6 | 105 ± 20.6 | 16 ± 2 | -17.4 ± 7.4 | 17.2 ± 4.1 | 21.7 ± 3.4 | 29.6 ± 4 | -2.9 ± 14.3 | 112 ± 4.9 | 16 ± 8.7
Nc1nnc(CCC(=O)c2ccccc2)s1 [3j] | 1.2 | 12.9 ± 0.7 | 113 ± 8 | -30.6 ± 6.8 | -35.4 ± 6.6 | -22.9 ± 7.1 | -13.4 ± 12.3 | -30.6 ± 5.9 |  | 138 ± 8.8 | -2.3 ± 10.2
